{"source": "patent US9890146B2", "about": "“Compound having selective EP2 agonist activity” (ONO PHARMACEUTICAL CO., LTD., priority 2014, dated 2018)", "key": {"[1]": {"system": "male monkey (a cynomolgus monkey)", "assay": "Intraocular pressure lowering activity after ocular instillation", "assay_type": "in vivo", "settings": "Primates, in Macaca fascicularis, topical, maximum rate during 24 hours after ocular instillation of 30 μL, conscious monkey; for inhibition in vivo at 1 µg/mL: administration concentration 1 μg/mL; for inhibition in vivo at 3 µg/mL: administration concentration 3 μg/mL; for inhibition in vivo at 30 µg/mL: administration concentration 30 μg/mL; for inhibition in vivo at 100 µg/mL: administration concentration 100 μg/mL; for inhibition in vivo at 10 µg/mL: administration concentration 10 μg/mL", "protocol": "As can be easily understood by a person skilled in the art, in an in vivo test, since regarding all test compounds, carboxylic acid which is an active body has poor corneal permeability, pharmacological action of the active body was evaluated by ocular instillation administration of a compound which had been converted into an ester such as an ethyl ester or an isopropyl ester, or an alcohol.\nA test compound-containing solution (30 μL) which had been adjusted to each of various concentrations was ocular instillation-administered to the left or right eye of a male monkey (a cynomolgus monkey) under consciousness. An intraocular pressure after administration was measured with time from administration initiation to after 24 hours. Upon measurement of an intraocular pressure, a cynomolgus monkey was fixed on a monkey chair, and the monkey was anesthetized by ocular instillation-administering an ocular surface anesthetic (Benoxil eye drops 0.4% Santen Pharmaceutical Co., Ltd.). After mounting of a blepharostat (Handaya Co., Ltd.), an intraocular pressure of both eyes was measured (7 to 8 examples per group) using a pneumatic applanation flat tonometer (Model 30 Classic, REICHERT). A difference between an intraocular pressure value before the administration of a test substance and an intraocular pressure value after the administration of the test substance was calculated as an intraocular pressure lowering rate in accordance with the following equation, and the sustainability of intraocular eye lowering action was evaluated using a maximum intraocular pressure lowering rate during measurement.\nThe administered concentrations were determined based on the EP2 agonist activities measured by the above-mentioned method."}, "human EP2": {"target": "T1, human EP2 (Homo sapiens, UniProt P43116)", "T1 construct": "expressed in transfected cells; host or cells: CHO cells (EP2-CHO)", "T1 sequence (P43116 whole entry)": "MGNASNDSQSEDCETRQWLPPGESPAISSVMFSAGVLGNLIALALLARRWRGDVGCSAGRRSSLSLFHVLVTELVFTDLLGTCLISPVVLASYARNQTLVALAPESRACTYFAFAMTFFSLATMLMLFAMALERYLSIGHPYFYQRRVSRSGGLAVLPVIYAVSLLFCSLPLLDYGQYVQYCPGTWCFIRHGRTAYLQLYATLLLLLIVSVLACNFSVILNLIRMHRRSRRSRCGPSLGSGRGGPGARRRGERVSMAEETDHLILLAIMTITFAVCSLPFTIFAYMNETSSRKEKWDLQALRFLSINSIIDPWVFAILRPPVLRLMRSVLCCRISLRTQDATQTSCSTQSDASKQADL", "assay": "Measurement of EP2 agonist activity (measurement of cAMP concentration)", "assay_type": "cell-based", "protocol": "Using Chem1 cells or CHO cells in which various prostanoid receptors were forcibly expressed, respectively, agonist activities of test compounds on various prostanoid receptors was determined employing, as a measure, an intracellular cyclic AMP (hereinbelow, abbreviated as “cAMP”) production amount or an intracellular calcium concentration.\nThe test compound and a control substance (PGE2 and PGF2α) were dissolved in dimethyl sulfoxide (DMSO) to prepare a 10 mmol/L solution. The 10 mmol/L solution thus prepared was thawed upon use, then serially diluted with DMSO, and then diluted with a buffer solution for measurement use or a buffer solution for measurement use 2, and then the resulting solution was subjected to an experiment.\nCells forcibly expressing various prostanoid receptors were standing-cultured at 37° C. in the presence of 5% CO2 using a DMEM medium (Sigma) (for culturing FP-Chem1) containing inactivated (56° C., 30 minutes) 9.8 vol % nondialysed-FBS (Life Technologies), 1 vol % Non Essential Amino Acids (Life Technologies), 10 mmol/L HEPES Buffer Solution (Life Technologies), 0.5 vol % GENETICIN (Life Technologies) and 1% penicillin-streptomycin (Life Technologies) or an α-MEM medium (Sigma) (for culturing EP2-CHO) containing inactivated (56° C., 30 minutes) 9.8 vol % dialysed-FBS (Life Technologies) and penicillin-streptomycin-glutamine (Life Technologies). Subculturing was carried out by the following manner.\nThe medium was removed, and washed with a phosphate-buffered physiological saline not containing Ca^2+ and Mg^2+ one time. A proper amount of trypsin-EDTA (Life Technologies) was added, and this was incubated at room temperature, cells were peeled, and a medium having a volume which is 10-fold a volume of trypsin-EDTA was added to stop an enzymatic reaction. After cells were recovered into a centrifuging tube, and centrifuged at room temperature for 3 minutes at 120 g, the supernatant was removed. Cells were suspended in a proper amount of a medium, and seeded in a culturing flask.\nOn the measurement day, a medium was removed, and EP2-CHO was washed with a phosphate-buffered physiological saline containing 2 mmol/L EDTA and not containing Ca^2+ and Mg^2+ one time. A proper amount of the phosphate-buffered physiological saline containing 2 mmol/L EDTA and not containing Ca^2+ and Mg^2+ was added, this was incubated at 37° C. in the presence of 5% CO2, cells were peeled, cells were recovered into a centrifuging tube, and centrifuged at room temperature for 3 minutes at 550 g, and the supernatant was removed. Cells were suspended in a proper amount of a buffer solution for measurement 1 (MEM medium (Invitrogen) containing 1.0 w/v % bovine serum albumin (Sigma) and 2 μmol/L diclofenac (Sigma)), and centrifuged at room temperature for 3 minutes at 200 g, and the supernatant was removed. Cells were suspended in a buffer solution for measurement 2 (MEM medium (Invitrogen) containing 1.0 w/v % bovine serum albumin (Sigma), 2 μmol/L diclofenac (Sigma) and 1 mmol/L 3-isobutyl-1-methylxanthine), and each 25 μL of the suspension was dispensed into a 96-well ½ area plate so that the cell number per well became […]. A buffer solution for measurement 2 (25 μL) containing an agonist at a variety of concentrations was added to carry out a reaction at room temperature for 30 minutes. Measurement of a cAMP concentration was carried out using the cAMP HTRF HiRange kit (CIS bio International). According to the two step protocol of the kit manual, each 25 μL of cAMP-D2 and Cryptase diluted with a lysis buffer were added, and this was incubated at room temperature for 1 hour. After incubation for 1 hour, time resolution fluorescence at 620 nm and 660 nm when excited at 340 nm was measured using SpectraMax M5e (Molecular Device), and a ratio (TRF ratio) was obtained, thereby, a cAMP concentration was calculated from a calibration line. […]"}, "[2]": {"settings": "EP2-CHO cells, cAMP production (HTRF), reaction 30 minutes at room temperature, read-out: EP2 agonist activity EC50"}}, "note": "Like-named read-outs stand apart in the source and are kept apart here.", "data": [{"smiles": "Cc1ccc(OC[C@@H]2[C@H]3CC[C@H](c4nc(CO)cs4)O[C@H]3C[C@@H]2O)cc1Cl", "note": "[10(21), (2R,4aR,5S,6S,7aS)-5-[(3-chloro-4-methylphenoxy)methyl]-2-[4-(hydroxymethyl)-1,3-thiazol-2-yl]octahydrocyclopenta[b]pyran-6-ol]", "values": [{"measurement": "inhibition in vivo at 1 µg/mL", "setting": "[1]", "result": 44, "unit": "%"}]}, {"smiles": "OCc1csc([C@H]2CC[C@@H]3[C@@H](COc4ccc5c(c4F)CCC5)[C@@H](O)C[C@@H]3O2)n1", "note": "[10(22), (2R,4aR,5S,6S,7aS)-5-{[(4-fluoro-2,3-dihydro-1H-inden-5-yl)oxy]methyl}-2-[4-(hydroxymethyl)-1,3-thiazol-2-yl]octahydrocyclopenta[b]pyran-6-ol]", "values": [{"measurement": "inhibition in vivo at 3 µg/mL", "setting": "[1]", "result": 43, "unit": "%"}]}, {"smiles": "CCc1ccc(OC[C@@H]2[C@H]3CC[C@H](c4nc(CO)cs4)O[C@H]3C[C@@H]2O)cc1CC", "note": "[10(32), (2R,4aR,5S,6S,7aS)-5-[(3,4-diethylphenoxy)methyl]-2-[4-(hydroxymethyl)-1,3-thiazol-2-yl]octahydrocyclopenta[b]pyran-6-1]", "values": [{"measurement": "inhibition in vivo at 3 µg/mL", "setting": "[1]", "result": 41, "unit": "%"}]}, {"smiles": "OCc1csc([C@H]2CC[C@@H]3[C@@H](COc4cccc5c4CCC5)[C@H](O)C[C@@H]3O2)n1", "note": "[2(14), (2R,4aR,5S,6R,7aS)-5-[(2,3-dihydro-1H-inden-4-yloxy)methyl]-2-[4-(hydroxymethyl)-1,3-thiazol-2-yl]octahydrocyclopenta[b]pyran-6-ol]", "values": [{"measurement": "inhibition in vivo at 30 µg/mL", "setting": "[1]", "result": 45, "unit": "%"}]}, {"smiles": "OCc1csc([C@H]2CC[C@@H]3[C@@H](COc4ccc5ccoc5c4)[C@H](O)C[C@@H]3O2)n1", "note": "[2(8), (2R,4aR,5S,6R,7aS)-5-[(1-benzofuran-6-yloxy)methyl]-2-[4-(hydroxymethyl)-1,3-thiazol-2-yl]octahydrocyclopenta[b]pyran-6-ol]", "values": [{"measurement": "inhibition in vivo at 30 µg/mL", "setting": "[1]", "result": 55, "unit": "%"}]}, {"smiles": "CC(C)OC(=O)c1csc([C@H]2CC[C@@H]3[C@@H](COc4ccccc4)[C@H](O)C[C@@H]3O2)n1", "note": "[3(1), isopropyl 2-[(2R,4aR,5S,6R,7aS)-6-hydroxy-5-(phenoxymethyl)octahydrocyclopenta[b]pyran-2-yl]-1,3-thiazole-4-carboxylate]", "values": [{"measurement": "inhibition in vivo at 100 µg/mL", "setting": "[1]", "result": 28, "unit": "%"}]}, {"smiles": "Cc1cc(OC[C@@H]2[C@H]3CC[C@H](c4nc(C(=O)OC(C)C)cs4)O[C@H]3C[C@H]2O)ccc1[N+](=O)[O-]", "note": "[3(3), isopropyl 2-{(2R,4aR,5S,6R,7aS)-6-hydroxy-5-[(3-methyl-4-nitrophenoxy)methyl]octahydrocyclopenta[b]pyran-2-yl}-1,3-thiazole-4-carboxylate]", "values": [{"measurement": "inhibition in vivo at 3 µg/mL", "setting": "[1]", "result": 33, "unit": "%"}]}, {"smiles": "CC(C)OC(=O)c1csc([C@H]2CC[C@@H]3[C@@H](COc4ccc5c(c4)CCC5)[C@H](O)C[C@@H]3O2)n1", "note": "[3(4)]", "values": [{"measurement": "inhibition in vivo at 30 µg/mL", "setting": "[1]", "result": 35, "unit": "%"}]}, {"smiles": "CCc1cc(OC[C@@H]2[C@H]3CC[C@H](c4nc(CO)cs4)O[C@H]3C[C@@H]2O)ccc1C", "note": "[10(3), (2R,4aR,5S,6S,7aS)-5-[(3-ethyl-4-methylphenoxy)methyl]-2-[4-(hydroxymethyl)-1,3-thiazol-2-yl]octahydrocyclopenta[b]pyran-6-ol]", "values": [{"measurement": "inhibition in vivo at 1 µg/mL", "setting": "[1]", "result": 49, "unit": "%"}]}, {"smiles": "CCc1cc(OC[C@@H]2[C@H]3CC[C@H](c4nc(CO)cs4)O[C@H]3C[C@H]2O)ccc1C", "note": "[2(9), (2R,4aR,5S,6R,7aS)-5-[(3-ethyl-4-methylphenoxy)methyl]-2-[4-(hydroxymethyl)-1,3-thiazol-2-yl]octahydrocyclopenta[b]pyran-6-ol]", "values": [{"measurement": "inhibition in vivo at 10 µg/mL", "setting": "[1]", "result": 52, "unit": "%"}]}, {"smiles": "OCc1csc([C@H]2CC[C@@H]3[C@@H](COc4ccc5[nH]ccc5c4)[C@H](O)C[C@@H]3O2)n1", "note": "[2(5), (2R,4aR,5S,6R,7aS)-2-[4-(hydroxymethyl)-1,3-thiazol-2-yl]-5-[(1H-indol-5-yloxy)methyl]octahydrocyclopenta[b]pyran-6-ol]", "values": [{"measurement": "inhibition in vivo at 30 µg/mL", "setting": "[1]", "result": 48, "unit": "%"}]}, {"smiles": "OCc1csc([C@H]2CC[C@@H]3[C@@H](COc4ccc5c(c4)CC5)[C@H](O)C[C@@H]3O2)n1", "note": "[2(7), (2R,4aR,5S,6R,7aS)-5-[(bicyclo[4.2.0]octa-1,3,5-trien-3-yloxy)methyl]-2-[4-(hydroxymethyl)-1,3-thiazol-2-yl]octahydrocyclopenta[b]pyran-6-ol]", "values": [{"measurement": "inhibition in vivo at 30 µg/mL", "setting": "[1]", "result": 38, "unit": "%"}]}, {"smiles": "OCc1csc([C@H]2CC[C@@H]3[C@@H](COc4ccc5c(c4)CCC5)[C@H](O)C[C@@H]3O2)n1", "note": "[2(4), (2R,4aR,5S,6R,7aS)-5-[(2,3-dihydro-1H-inden-5-yloxy)methyl]-2-[4-(hydroxymethyl)-1,3-thiazol-2-yl]octahydrocyclopenta[b]pyran-6-ol]", "values": [{"measurement": "inhibition in vivo at 100 µg/mL", "setting": "[1]", "result": 40, "unit": "%"}]}, {"smiles": "OCc1csc([C@H]2CC[C@@H]3[C@@H](COc4ccc5c(c4)CCCC5)[C@@H](O)C[C@@H]3O2)n1", "note": "[10(7), (2R,4aR,5S,6S,7aS)-2-[4-(hydroxymethyl)-1,3-thiazol-2-yl]-5-[(5,6,7,8-tetrahydro-2-naphthalenyloxy)methyl]octahydrocyclopenta[b]pyran-6-ol]", "values": [{"measurement": "inhibition in vivo at 10 µg/mL", "setting": "[1]", "result": 41, "unit": "%"}]}, {"smiles": "OCc1csc([C@H]2CC[C@@H]3[C@@H](COc4ccc5c(c4F)CCC5)[C@H](O)C[C@@H]3O2)n1", "note": "[2(16), (2R,4aR,5S,6R,7aS)-5-{[(4-fluoro-2,3-dihydro-1H-inden-S-yl)oxy]methyl}-2-[4-(hydroxymethyl)-1,3-thiazol-2-yl]octahydrocyclopenta[b]pyran-6-ol]", "values": [{"measurement": "inhibition in vivo at 30 µg/mL", "setting": "[1]", "result": 51, "unit": "%"}]}, {"smiles": "OCc1csc([C@H]2CC[C@@H]3[C@@H](COc4ccc(C5CC5)c(C5CC5)c4)[C@@H](O)C[C@@H]3O2)n1", "note": "[Example 10, (2R,4aR,5S,6S,7aS)-5-[(3,4-dicyclopropylphenoxy)methyl]-2-[4-(hydroxymethyl)-1,3-thiazol-2-yl]octahydrocyclopenta[b]pyran-6-ol]", "values": [{"measurement": "inhibition in vivo at 10 µg/mL", "setting": "[1]", "result": 40, "unit": "%"}]}, {"smiles": "O=C(O)c1csc([C@H]2CC[C@@H]3[C@@H](COc4ccc5c(c4)CCCC5)[C@@H](O)C[C@@H]3O2)n1", "note": "[9(12), 2-{(2R,4aR,5S,6S,7aS)-6-hydroxy-5-[(5,6,7,8-tetrahydro-2-naphthalenyloxy)methyl]octahydrocyclopenta[b]pyran-2-yl}-1,3-thiazole-4-carboxylic acid]", "values": [{"measurement": "EC50", "setting": "human EP2; [2]", "result": 6.4, "unit": "nM"}]}, {"smiles": "O=C(O)c1ccc(C2=CC[C@@H]3[C@@H](/C=C/[C@@H](O)C4CCCC4)[C@H](O)C[C@@H]3O2)o1", "note": "[reference compound]", "values": [{"measurement": "EC50", "setting": "human EP2; prior-art compounds having an analogous structure, same EP2 test, read-out: EP2 agonist activities, EC50 values", "result": "≥ 10000", "unit": "nM"}]}, {"smiles": "O=C(O)c1csc([C@H]2CC[C@@H]3[C@@H](COc4ccc5c(c4)CCCCC5)[C@@H](O)C[C@@H]3O2)n1", "note": "[9(33)]", "values": [{"measurement": "EC50", "setting": "human EP2; [2]", "result": 1.6, "unit": "nM"}]}]}
